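Each compound was tested at five concentrations against cells in 96-well plates for 48 hours. At the GI50, growth is halved.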 Calls of active or inactive are those of the source. Rule as the data show it: active = GI50 up to about 1.1 µM and inactive = higher.
Tests used:
Assay in all cases: NCI tumour cell line growth inhibition, 48 h
SW-620 = tested on: SW-620
SNB-78 = tested on: SNB-78
XF498 = tested on: XF498
UACC-257 = tested on: UACC-257
SK-MEL-5 = tested on: SK-MEL-5
SK-MEL-28 = tested on: SK-MEL-28
CCRF-CEM = tested on: CCRF-CEM
OVCAR-3 = tested on: OVCAR-3
HCT-15 = tested on: HCT-15
SNB-75 = tested on: SNB-75
KM12 = tested on: KM12
ACHN = tested on: ACHN
LXFL 529 = tested on: LXFL 529
KM-20L2 = tested on: KM-20L2
RXF 393 = tested on: RXF 393
SF-295 = tested on: SF-295
COLO 205 = tested on: COLO 205
MOLT-4 = tested on: MOLT-4
HT-29 = tested on: HT-29
NCI-H226 = tested on: NCI-H226
NCI-H460 = tested on: NCI-H460
SF-539 = tested on: SF-539
UO-31 = tested on: UO-31
OVCAR-5 = tested on: OVCAR-5
SR = tested on: SR
SNB-19 = tested on: SNB-19
SK-MEL-2 = tested on: SK-MEL-2
A498 = tested on: A498
Malme-3M = tested on: Malme-3M
K562 = tested on: K562
IGROV-1 = tested on: IGROV-1
NCI-H522 = tested on: NCI-H522
HOP-62 = tested on: HOP-62
A549 = tested on: A549
SK-OV-3 = tested on: SK-OV-3
DLD-1 = tested on: DLD-1
EKVX = tested on: EKVX
HCC 2998 = tested on: HCC 2998
LOX IMVI = tested on: LOX IMVI
HOP-92 = tested on: HOP-92
CAKI-1 = tested on: CAKI-1
DMS-114 = tested on: DMS-114
HOP-18 = tested on: HOP-18
M19-MEL = tested on: M19-MEL
UACC-62 = tested on: UACC-62
OVCAR-8 = tested on: OVCAR-8
M14 = tested on: M14
RPMI-8226 = tested on: RPMI-8226
786-0 = tested on: 786-0
NCI-H23 = tested on: NCI-H23
OVCAR-4 = tested on: OVCAR-4
SN12C = tested on: SN12C
U-251 = tested on: U-251
RXF 631 = tested on: RXF 631
HL-60 = tested on: HL-60
TK-10 = tested on: TK-10
SF-268 = tested on: SF-268
HCT-116 = tested on: HCT-116
DMS-273 = tested on: DMS-273

CCCCOC(=O)CNC(=O)OC/C=C/C#CC#C/C=C/COC(=O)NCC(=O)OCCCC
GI50 (SW-620): > 100 µM (inactive)
GI50 (SNB-78): > 10 µM (inactive)
GI50 (XF498): > 10 µM (inactive)
GI50 (UACC-257): > 10 µM (inactive)
GI50 (SK-MEL-5): > 10 µM (inactive)
GI50 (SK-MEL-28): > 10 µM (inactive)
GI50 (CCRF-CEM): > 10 µM (inactive)
GI50 (OVCAR-3): > 10 µM (inactive)
GI50 (HCT-15): > 10 µM
GI50 (SNB-75): 27 µM (inactive)
GI50 (KM12): > 10 µM (inactive)
GI50 (ACHN): > 10 µM (inactive)
GI50 (LXFL 529): > 10 µM (inactive)
GI50 (KM-20L2): > 10 µM (inactive)
GI50 (RXF 393): > 10 µM (inactive)
GI50 (SF-295): > 10 µM (inactive)
GI50 (COLO 205): > 10 µM (inactive)
GI50 (MOLT-4): > 10 µM (inactive)
GI50 (HT-29): > 10 µM (inactive)
GI50 (NCI-H226): > 10 µM (inactive)
GI50 (NCI-H460): > 10 µM (inactive)
GI50 (SF-539): > 10 µM (inactive)
GI50 (UO-31): > 10 µM (inactive)
GI50 (OVCAR-5): > 10 µM (inactive)
GI50 (SR): > 10 µM (inactive)
GI50 (SNB-19): > 10 µM (inactive)
GI50 (SK-MEL-2): > 10 µM (inactive)
GI50 (A498): > 10 µM (inactive)
GI50 (Malme-3M): > 10 µM (inactive)
GI50 (K562): > 10 µM (inactive)
GI50 (IGROV-1): > 10 µM (inactive)
GI50 (NCI-H522): > 10 µM (inactive)
GI50 (HOP-62): > 10 µM (inactive)
GI50 (A549): > 10 µM (inactive)
GI50 (SK-OV-3): > 10 µM (inactive)
GI50 (DLD-1): > 10 µM (inactive)
GI50 (EKVX): > 10 µM (inactive)
GI50 (HCC 2998): > 10 µM (inactive)
GI50 (LOX IMVI): > 10 µM (inactive)
GI50 (HOP-92): > 10 µM (inactive)
GI50 (CAKI-1): > 10 µM (inactive)
GI50 (DMS-114): > 10 µM (inactive)
GI50 (HOP-18): > 10 µM (inactive)
GI50 (M19-MEL): > 10 µM (inactive)
GI50 (UACC-62): > 10 µM (inactive)
GI50 (OVCAR-8): > 10 µM (inactive)
GI50 (M14): > 10 µM (inactive)
GI50 (RPMI-8226): > 10 µM (inactive)
GI50 (786-0): 68.7 µM (inactive)
GI50 (NCI-H23): > 10 µM (inactive)
GI50 (OVCAR-4): > 10 µM (inactive)
GI50 (SN12C): > 10 µM (inactive)
GI50 (U-251): > 10 µM (inactive)
GI50 (RXF 631): > 10 µM (inactive)
GI50 (HL-60): > 10 µM (inactive)
GI50 (TK-10): > 10 µM (inactive)
GI50 (SF-268): > 10 µM (inactive)
GI50 (HCT-116): > 10 µM (inactive)

C/C(CN1C(=O)c2ccccc2C1=O)=N\NS(=O)(=O)c1cccc([N+](=O)[O-])c1
GI50 (SW-620): > 100 µM (inactive)
GI50 (SNB-78): > 100 µM (inactive)
GI50 (XF498): > 100 µM (inactive)
GI50 (UACC-257): > 100 µM (inactive)
GI50 (SK-MEL-5): > 100 µM (inactive)
GI50 (SK-MEL-28): > 100 µM (inactive)
GI50 (CCRF-CEM): > 100 µM (inactive)
GI50 (OVCAR-3): > 100 µM (inactive)
GI50 (HCT-15): > 100 µM
GI50 (SNB-75): > 100 µM (inactive)
GI50 (KM12): > 100 µM (inactive)
GI50 (ACHN): > 100 µM (inactive)
GI50 (LXFL 529): > 100 µM (inactive)
GI50 (KM-20L2): > 100 µM (inactive)
GI50 (RXF 393): > 100 µM (inactive)
GI50 (SF-295): > 100 µM (inactive)
GI50 (COLO 205): > 100 µM (inactive)
GI50 (MOLT-4): > 100 µM (inactive)
GI50 (HT-29): > 100 µM (inactive)
GI50 (NCI-H226): > 100 µM (inactive)
GI50 (NCI-H460): > 100 µM (inactive)
GI50 (SF-539): > 100 µM (inactive)
GI50 (UO-31): > 100 µM (inactive)
GI50 (OVCAR-5): > 100 µM (inactive)
GI50 (SNB-19): > 100 µM (inactive)
GI50 (SK-MEL-2): > 100 µM (inactive)
GI50 (A498): > 100 µM (inactive)
GI50 (Malme-3M): > 100 µM (inactive)
GI50 (K562): > 100 µM (inactive)
GI50 (IGROV-1): > 100 µM (inactive)
GI50 (NCI-H522): > 100 µM (inactive)
GI50 (HOP-62): > 100 µM (inactive)
GI50 (A549): > 100 µM (inactive)
GI50 (SK-OV-3): > 100 µM (inactive)
GI50 (DLD-1): > 100 µM (inactive)
GI50 (EKVX): > 100 µM (inactive)
GI50 (HCC 2998): > 100 µM (inactive)
GI50 (DMS-273): > 100 µM (inactive)
GI50 (CAKI-1): > 100 µM (inactive)
GI50 (HOP-18): > 100 µM (inactive)
GI50 (M19-MEL): > 100 µM (inactive)
GI50 (UACC-62): > 100 µM (inactive)
GI50 (OVCAR-8): > 100 µM (inactive)
GI50 (M14): > 100 µM (inactive)
GI50 (RPMI-8226): > 100 µM (inactive)
GI50 (786-0): > 100 µM (inactive)
GI50 (NCI-H23): > 100 µM (inactive)
GI50 (OVCAR-4): > 100 µM (inactive)
GI50 (SN12C): > 100 µM (inactive)
GI50 (U-251): > 100 µM (inactive)
GI50 (RXF 631): > 100 µM (inactive)
GI50 (HL-60): > 100 µM (inactive)
GI50 (TK-10): > 100 µM (inactive)
GI50 (SF-268): > 100 µM (inactive)
GI50 (HCT-116): > 100 µM (inactive)

CCC12CC[C@H](C#N)N3CCc4c(n(c5ccccc45)C(=O)C1)C32 (stereo partly specified)
GI50 (SW-620): 14.9 µM (inactive)
GI50 (SNB-78): 19.5 µM (inactive)
GI50 (XF498): 20 µM (inactive)
GI50 (UACC-257): 14 µM (inactive)
GI50 (SK-MEL-5): 12.7 µM (inactive)
GI50 (SK-MEL-28): 15.2 µM (inactive)
GI50 (CCRF-CEM): 12.3 µM (inactive)
GI50 (OVCAR-3): 13.3 µM (inactive)
GI50 (HCT-15): 5.2 µM
GI50 (SNB-75): 5.56 µM (inactive)
GI50 (KM12): 8.17 µM (inactive)
GI50 (ACHN): > 10 µM (inactive)
GI50 (LXFL 529): 16.6 µM (inactive)
GI50 (KM-20L2): 16.3 µM (inactive)
GI50 (RXF 393): 13.3 µM (inactive)
GI50 (SF-295): 12.4 µM (inactive)
GI50 (COLO 205): 19.1 µM (inactive)
GI50 (MOLT-4): 15 µM (inactive)
GI50 (HT-29): 14.2 µM (inactive)
GI50 (NCI-H460): 13.3 µM (inactive)
GI50 (SF-539): 17.5 µM (inactive)
GI50 (UO-31): 3.1 µM (inactive)
GI50 (OVCAR-5): 21.5 µM (inactive)
GI50 (SNB-19): > 10 µM (inactive)
GI50 (SK-MEL-2): 14.1 µM (inactive)
GI50 (A498): 13.3 µM (inactive)
GI50 (Malme-3M): 4.02 µM (inactive)
GI50 (K562): 5.28 µM (inactive)
GI50 (IGROV-1): 24.8 µM (inactive)
GI50 (HOP-62): 22.9 µM (inactive)
GI50 (A549): 15.9 µM (inactive)
GI50 (SK-OV-3): 35.3 µM (inactive)
GI50 (DLD-1): 18.3 µM (inactive)
GI50 (EKVX): 23 µM (inactive)
GI50 (HCC 2998): 15.8 µM (inactive)
GI50 (LOX IMVI): 14.1 µM (inactive)
GI50 (DMS-273): 5.14 µM (inactive)
GI50 (CAKI-1): 12.6 µM (inactive)
GI50 (HOP-18): < 0.01 µM (active)
GI50 (M19-MEL): 18.7 µM (inactive)
GI50 (UACC-62): 12.2 µM (inactive)
GI50 (OVCAR-8): 19.9 µM (inactive)
GI50 (M14): 16.4 µM (inactive)
GI50 (RPMI-8226): 17.9 µM (inactive)
GI50 (786-0): 16.9 µM (inactive)
GI50 (NCI-H23): 15.4 µM (inactive)
GI50 (OVCAR-4): 12.1 µM (inactive)
GI50 (SN12C): 19.4 µM (inactive)
GI50 (U-251): 16.3 µM (inactive)
GI50 (RXF 631): 16.4 µM (inactive)
GI50 (TK-10): 16.4 µM (inactive)
GI50 (SF-268): 17.9 µM (inactive)
GI50 (HCT-116): 13.9 µM (inactive)
